The source of these data is patent publication US20140199265A1, “NUTRITIONAL COMPOSITIONS CONTAINING A NEUROLOGIC COMPONENT AND USES THEREOF” (MEAD JOHNSON NUTRITION COMPANY, priority 2013, published 2014).

For assay [1], the system named is human neuronal stem cells (hNSCs). As to the kind of experiment: neurogenesis of GFP-expressing hNSCs judged by morphological changes under inverted fluorescent microscopy. It is filed as cell-based. The procedure: Briefly, hNSCs were purchased from Millipore, Bellerica, Mass., U.S.A., with genetic modification to constitutively express green fluorescent protein (“GFP”). The hNSCs were cultured on laminin coated plates as recommended by the manufacturer. Both laminin and DEME/F12 were obtained from Millipore. Laminin was diluted with DMEM/F12 to 20 μg/mL. 10 ml of diluted laminin solution was added to 10 cm tissue culture dish. Then the culture dish was incubated in a 37° C., 5% CO2 incubator overnight. Just before use, the laminin solution was aspirated and rinsed once with sterile DPBS solution. hNSCs were cultured in the ReNcell NSC maintenance medium (Millipore) supplied with 20 ng/mL bFGF and 20 ng/mL EGF in a 37° C., 5% CO2 incubator. Medium was exchanged with fresh medium containing bFGF and EGF every other day thereafter.
After hNSCs reach 80% confluence, hNSCs were ready for the differentiation experiment. Before seeding, a 96-well plate was freshly coated with 20 μg/mL laminin solution followed by a brief DPBS rinse as described above. Culture medium was removed carefully and hNSCs were dissociated within 3 ml Accutase (Millipore) in a 37° C., 5% CO2 incubator for 3 minutes. Then 5 ml of ReNcell NSC maintenance medium (Millipore) supplied with 20 ng/mL bFGF and 20 ng/mL EGF were added. The cell suspension was then transferred a sterile 15 ml conical tube and the cells were pelleted by the centrifugation at 300×g for 5 minutes. Supernatant was removed. 2 ml medium was then applied to the tube and hNSCs was resuspended thoroughly. The hNSCs were seeded on a 96-well plate at a density of 1×10^4 cell/ml (1000 cells/well, 100 μl/well).
After attaching to the culture surface, the culture medium was switched to serum-free differentiation medium in the presence of CDP-choline, or DHA, or no treatment. The serum-free differentiation medium was prepared freshly before the switching including 40 ml DMEM/F12 (Millipore), 400 μL-Glutamine at a concentration of 200 mM (Life Technologies, Carlsbad, Calif.), 400 μl B27 solution (Life Technologies, Carlsbad, Calif.), and 40 μl Heperin (Sigma-Aldrich, St. Louis, […].) solution at a concentration of 10 mg/mL.
The entire 96-well plate was placed under the Leica DMI4000B fluorescent microscopy, and images were taken with GFP filter under a microscope with UV light source.

Assay [2] relates to human adipose-derived stem cells (hADSCs). In words: neurogenesis / neuronal differentiation of hADSCs judged by neuronal morphology under phase contrast microscopy. It is filed as cell-based. The method, then:
hADSCs were purchased from Invitrogen, also known as Life Technologies, of Carlsbad, Calif., U.S.A., and were cultured as near confluent monolayers in 100 mm culture plates within a maintenance media consisting of Complete MesenPro RS medium with growth supplement and L-glutamine obtained from Invitrogen®. The process of culturing, passage, and seeding the hADSCs is described below.
The subculture of hADSCs was performed when cell culture reached confluence. To passage hADSCs, the following procedure is used: i) aspirate the Complete MesenPRO RS medium from the cells; ii) rinse the surface area of the cell layer with Dulbecco's phosphate buffered saline (DBPS) buffer by adding the DPBS to the side of the vessel opposite the attached cell layer and rocking the vessel back and forth several times; iii) remove the DPBS by aspiration and discard; iv) detach the cells by adding a sufficient volume of pre-warmed trypsin-EDTA solution without phenol red to cover the cell layer; v) incubate at 37° C. for approximately 7 minutes; vi) observe the cells under a microscope to determine if additional incubation is needed; vii) add 3 mL of the maintenance media to the plate, mix the cell suspension, add the suspension to a 15 mL centrifuge tube and centrifuge at 210 g for 5 minutes; viii) determine the total number of cells and percent viability using a hemacytometer; ix) add Complete MesenPRO RS medium to each vessel so that the final culture volume is 0.2 mL-0.5 mL per cm^2; x) seed the cells by adding the appropriate volume of cells to each vessel and incubate at 37° C., 5% CO2 and 90% humidity; and xi) three or four days after seeding, completely remove the medium and replace with an equal volume of Complete MesenPRO RS medium.
Before seeding the passaged hADSCs on fresh culture plates, the surfaces of the culture ware are washed with sterile DPBS solution three times, followed by multiple rinses with sterile water. The first layer of coating is poly-L-ornithine. The coating is prepared by adding about 15 to about 20 μg/mL of poly-L-ornithine and incubating at 37° C. for one hour. The plate is washed three times with DPBS, 15 minutes per wash. The second layer of coating is bovine plasma fibronectin. The fibronectin is diluted in DPBS from stock to 1:1000 and 500 μL is added to each well. The plate is left at room temperature for one hour. One final wash with 500 μL per well of DPBS is performed and the plate is used immediately.
The cells were then subjected to removal and reseeded at a density of 2×10^4 cells/ml (1×10^4 cells/well) onto 24-well culture plates that contained a poly-L-ornithine and bovine plasma fibronectin coating.
Three days after seeding and priming; the culture medium was changed into neuronal differentiation medium. The culture plates were removed from the incubator and all procedures were conducted in a laminar flow hood. The culture medium was completely removed from each well. The hADSCs were then washed with sterile DPBS solution in an amount of about 1 ml per well, to remove excess culture medium. The DPBS solution was removed and replaced with neuronal differentiation medium. The formulation of the neuronal differentiation medium is such that neurogenesis would be attributed to the nutrient and not to the medium. The neuronal differentiation medium used was Neurobasal™ Medium, available from Invitrogen®, which comprises the following ingredients listed below in Table 1.
PE was added to individual wells at various concentrations in the serum-free medium. Pre-warmed serum-free medium contains Neural Basal medium with L-glutamine, 20 ng/mL of bFGF, 20 ng/mL of EGF and N2 supplement.
[…] PE in varying concentrations was tested individually and compared to the positive control, DHA, and the negative control (no treatment) under phase contrast microscopy at 24 hours, 48 hours and 96 hours. The experiments were repeated in triplicate. […]

Setting [3] is: CDP-choline of 404 (so in the source), after 72 hours.

Consider `CCCCCCCCCCCCC/C=C/[C@@H](O)[C@@H](CO)NC(=O)CCCCCCC` [N-octanoyl-D-threo-sphingosine], for which the neurogenesis result in assay [1] (10 μM, FIG. 5E) is on record as “dramatically promoted neurogenesis”.
For the compound phosphatidylethanolamine [PE], in assay [2] (20 μM, among 10, 20 and 40 μM tested, FIGS. 2C, 2D), the “effect to enhance neurogenesis (neuronal morphology)” value was “demonstrated the strongest effect to enhance neurogenesis”.
On to `C[N+](C)(C)CCOP(=O)(O)OP(=O)([O-])OC[C@H]1O[C@@H](n2ccc(N)nc2=O)[C@H](O)[C@@H]1O` [CDP-choline, cytidine diphosphate-choline], for which the “effect to enhance neurogenesis (neurite outgrowth, morphological changes)” value in assay [2] (5 μM, FIG. 4C) is recorded as “demonstrated an effect to enhance neurogenesis”. Also, in assay [1] (setting [3]), the “length of neurite outgrowth” value is reported as “comparable to DHA at 20 μM” and the “neurogenesis compared to no treatment” value is given as “dramatically promoted neurogenesis”.
As for lactosylceramide, in assay [2] (10 μM, FIG. 5D), the neurogenesis action entry was “exhibit neurogenesis action”.
Consider `O=c1ccn([C@@H]2O[C@H](CO)[C@@H](O)[C@H]2O)c(=O)[nH]1` [uridine], for which, in assay [2] (20 μM, three hours after switching to neural differentiation medium, FIG. 6B), the early neurogenesis entry is recorded as “Early neurogenesis was observed”. Also, in assay [2] (0.5 mM), the “duration of neuronal morphological changes” value is “continued up to the 48-hour time course of the culture” and the “effect to enhance early neurogenesis” value is recorded as “demonstrated the strongest effect to enhance early neurogenesis”. Also, the “length of neurite outgrowth” value in assay [1] (20 μM) is “good effects of neurogenesis”. In addition, in assay [1] (20 μM, FIG. 6C), the neurogenesis entry was “dramatically promoted neurogenesis”.
Take `CCCCCCCCCCCCC/C=C/[C@@H](O)[C@H](CO)NC(=O)C(O)CCCCCCCCCC` (stereo partly drawn) [N—(R,S)-alpha-Hydroxydodecanoyl-D-erythrosphingosine]: the early neurogenesis entry in assay [2] (40 μM, 24 hours after treating, FIG. 5B) was “Early neurogenesis was also, observed”. Further, the “effects to promote neurogenesis compared with DHA” value in assay [2] (tested at 20 and 40 μM vs DHA 10 μM, 24 hours) is on record as “moderate effects to promote neurogenesis”. In assay [2] (tested at 20 and 40 μM, 24 hours), the “neuronal changes in terms of morphology” value is “obvious neuronal changes in terms of morphology”.
Consider sphingomyelin, for which, in assay [2] (40 μM), the neural differentiation result is “enhanced neural differentiation of hADSCs”. For the same compound, the “extensions compared to negative control” value in assay [2] (even at low concentrations (10-40 μM tested)) was “longer than negative control and much more numerous”.
